Laboratory results taken from ChEMBL document CHEMBL1139726, “Identification of novel inhibitors of UDP-Glc 4'-epimerase, a validated drug target for african sleeping sickness” (Bioorg Med Chem Lett, 2006).

Legend:
[1] = tested on: CHO-K1; assay: Cytotoxicity against CHO-K1 cells by Alamar blue assay; assay type: cell-based; details: Cricetulus griseus
[2] = tested on: Trypanosoma brucei; assay: Inhibition of Trypanosoma brucei GalE at 50 uM
[3] = biological target: T1, UDP-glucose 4-epimerase (Homo sapiens, UniProt Q14376); assay: Inhibition of human GalE by HPAEC assay
T1 sequence (Q14376 whole entry): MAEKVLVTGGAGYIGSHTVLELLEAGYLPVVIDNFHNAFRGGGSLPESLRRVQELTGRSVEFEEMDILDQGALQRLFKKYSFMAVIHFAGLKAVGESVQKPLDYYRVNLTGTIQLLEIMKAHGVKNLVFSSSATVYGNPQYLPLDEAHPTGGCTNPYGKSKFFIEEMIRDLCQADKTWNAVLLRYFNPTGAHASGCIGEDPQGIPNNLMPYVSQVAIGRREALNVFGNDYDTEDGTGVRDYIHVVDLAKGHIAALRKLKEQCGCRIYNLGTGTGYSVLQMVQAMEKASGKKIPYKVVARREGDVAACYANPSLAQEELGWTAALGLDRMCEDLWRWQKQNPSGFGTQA

[4] = tested on: Trypanosoma brucei; assay: Cytotoxicity against Trypanosoma brucei by Alamar blue assay; assay type: organism-based
[5] = Inhibition of Trypanosoma brucei GalE by HPAEC assay
[6] = Inhibition of Trypanosoma brucei GalE after 1 hr by HPAEC assay

| Compound | EC50 [1] [µM] | inhibition [2] [%] | IC50 [3] [µM] | EC50 [4] [µM] | IC50 [5] [µM] | IC50 [6] [µM] |
| --- | --- | --- | --- | --- | --- | --- |
| C=C(CC)C(=O)c1ccc(OCC(=O)O)c(Cl)c1Cl [ETHACRYNIC ACID] | 56 | > 75 | 14 | 3.3 | 3.1 |  |
| CC/C(=C(/CC)c1ccc(O)cc1)c1ccc(O)cc1 [DIETHYLSTILBESTROL] | 8.5 | > 75 | 75 | 2.8 | 17 |  |
| O=C(NCCSSCCNC(=O)/C(Cc1ccc(O)c(Br)c1)=N/O)/C(Cc1ccc(O)c(Br)c1)=N/O [PSAMMAPLIN A] | 0.9 | > 75 | 3.6 | 2.6 | 15 |  |
| O=c1c2ccccc2[se]n1-c1ccccc1 [EBSELEN] | 6.1 | > 75 | 0.014 | 4.1 | 0.62 |  |
| Clc1cc(Cl)c(OCC#CI)cc1Cl [HALOPROGIN] | 0.6 | > 75 | 0.5 | 0.3 |  | > 100 |
